According to patent US20260098026A1, “M4 ACTIVATORS/MODULATORS AND USES THEREOF” (Cerevel Therapeutics, LLC, priority 2022, published 2026):

Legend:
Type in all cases: cell-based
[1] = biological target: T1, M3 muscarinic acetylcholine receptor (mAChR) (Homo sapiens, UniProt P20309); test: FLIPR calcium assay (Fluo 8), M3-overexpressing CHO-K1 cells
T1 construct: expressed in transfected cells; host or cells: CHO-K1
How it was run: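 CHO-K1 cells overexpressing each human receptor seeded at 15,000 per well, grown overnight at 37° C., 5% CO2, then loaded with Fluo-8 for 30 min. Compounds in HBSS added and calcium response read on FLIPR; EC50 and Emax calculated per subtype.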

M2 mAChR = biological target: T2, M2 mAChR (Homo sapiens, UniProt P08172); test: cAMP TR-FRET assay with forskolin, M2-overexpressing CHO-K1 cells
T2 construct: expressed in transfected cells; host or cells: CHO-K1
T2 sequence (P08172 1-466): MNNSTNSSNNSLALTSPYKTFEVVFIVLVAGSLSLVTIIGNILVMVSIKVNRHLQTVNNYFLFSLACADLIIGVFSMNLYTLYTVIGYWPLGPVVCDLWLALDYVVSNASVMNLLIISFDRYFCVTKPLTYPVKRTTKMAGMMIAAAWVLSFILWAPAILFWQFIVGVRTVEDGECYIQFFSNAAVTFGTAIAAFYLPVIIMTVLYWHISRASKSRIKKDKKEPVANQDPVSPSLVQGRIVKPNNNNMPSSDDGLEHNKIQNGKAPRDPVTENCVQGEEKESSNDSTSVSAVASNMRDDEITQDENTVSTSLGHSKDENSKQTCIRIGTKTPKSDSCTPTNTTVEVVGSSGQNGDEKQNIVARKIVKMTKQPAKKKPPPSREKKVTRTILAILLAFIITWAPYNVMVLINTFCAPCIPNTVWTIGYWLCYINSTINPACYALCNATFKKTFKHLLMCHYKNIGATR
From the text: The M2 and M4 mACh receptors are Gi-coupled receptors which, upon activation, produce a decrease in cAMP. Assays were developed that measured the potency and efficacy of compounds at the M2 or M4 mAChR using M2- or M4-overexpressing CHO-K1 cell lines. Time-resolved fluorescence resonance energy transfer (TR-FRET) technology was used, where signal occurs as a result of transfer of energy if the donor molecule is in close proximity to an acceptor molecule when the molecules have bound to the molecule of interest. The cAMP detection is a competition binding assay, where cAMP produced by cells competes for binding with the labeled donor molecule to the anti-cAMP acceptor antibody. Due to the low basal levels of cAMP in the CHO-K1 cell line, forskolin was used to increase cAMP levels to enable assessment of agonist activity at the mAChR of interest.

M4 mAChR = biological target: T3, M4 mAChR (Homo sapiens, UniProt P08173); test: cAMP TR-FRET assay with forskolin, M4-overexpressing CHO-K1 cells
T3 construct: expressed in transfected cells; host or cells: CHO-K1
T3 sequence (P08173 1-479): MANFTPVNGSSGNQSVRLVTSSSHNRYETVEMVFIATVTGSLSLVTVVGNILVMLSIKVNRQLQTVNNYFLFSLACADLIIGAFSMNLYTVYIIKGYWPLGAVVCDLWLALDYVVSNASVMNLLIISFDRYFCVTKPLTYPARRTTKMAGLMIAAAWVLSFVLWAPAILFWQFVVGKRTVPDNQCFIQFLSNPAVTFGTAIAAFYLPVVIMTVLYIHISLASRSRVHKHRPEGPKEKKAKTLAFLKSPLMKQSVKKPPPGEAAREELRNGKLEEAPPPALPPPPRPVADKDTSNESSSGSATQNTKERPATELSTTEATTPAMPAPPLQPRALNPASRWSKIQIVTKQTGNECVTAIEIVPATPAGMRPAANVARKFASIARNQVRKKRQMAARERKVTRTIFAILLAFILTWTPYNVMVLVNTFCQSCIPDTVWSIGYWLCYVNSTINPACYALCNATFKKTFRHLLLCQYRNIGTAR
How it was run: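 CHO-K1 cells overexpressing the receptor were stimulated with forskolin to raise cAMP, so that Gi-mediated agonist decreases could be measured. cAMP was quantified by TR-FRET competition between cellular cAMP and labelled donor for anti-cAMP antibody, giving potency and efficacy.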

T1 sequence (P20309 whole entry): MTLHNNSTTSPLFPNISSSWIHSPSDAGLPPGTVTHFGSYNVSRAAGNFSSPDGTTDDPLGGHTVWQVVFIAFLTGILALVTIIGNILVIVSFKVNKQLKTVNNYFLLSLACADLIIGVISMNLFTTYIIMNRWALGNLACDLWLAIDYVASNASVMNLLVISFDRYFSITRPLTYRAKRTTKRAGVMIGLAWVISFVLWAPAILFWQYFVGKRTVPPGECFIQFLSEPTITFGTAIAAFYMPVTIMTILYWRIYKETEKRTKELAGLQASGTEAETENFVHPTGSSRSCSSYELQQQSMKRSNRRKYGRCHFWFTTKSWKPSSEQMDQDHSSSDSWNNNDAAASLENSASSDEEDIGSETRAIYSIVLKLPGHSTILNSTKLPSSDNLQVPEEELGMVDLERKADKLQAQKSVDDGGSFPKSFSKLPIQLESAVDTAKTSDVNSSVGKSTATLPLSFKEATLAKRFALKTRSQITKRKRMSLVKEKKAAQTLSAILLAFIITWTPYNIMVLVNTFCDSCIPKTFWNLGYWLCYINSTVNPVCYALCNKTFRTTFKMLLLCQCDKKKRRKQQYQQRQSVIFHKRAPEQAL

EC50 ([1]; FLIPR calcium)	M2 EC50 (nM) (M2 mAChR; cAMP TR-FRET with forskolin)	Emax (M4 mAChR; cAMP TR-FRET with forskolin)	EC50 ([1]; FLIPR)	Emax (M2 mAChR; cAMP assay)	Emax (M4 mAChR; cAMP assay)	SMILES
> 10 µM	I.A	80 to 100%				CCOC(=O)N1CC2(CC[C@@H](N3CCN(c4cc(F)cnc4C4CCOCC4)CC3)C2)C1 [Compound A7, ethyl (6R)-6-[4-(5-fluoro-2-tetrahydropyran-4-yl-3-pyridyl)piperazin-1-yl]-2-azaspiro[3.4]octane-2-carboxylate]
			> 10 µM	< 19%	80 to 100%	CCOC(=O)N1CC2(CC[C@@H](N3CCN(c4cc(F)cnc4-c4cnn(C(F)F)c4)CC3)C2)C1 [Compound A194]
